Results from patent US20250382261A1 (The Broad Institute, Inc., priority 2021, published 2025).

Experiments:
[1] = test system: A. baumannii (ATCC 17978); test: Checkerboard potentiation assay with novobiocin; format: cell-based; conditions: with novobiocin
Protocol: (§1) Bacterial strains and culture conditions. The following bacterial strains were used within this study; A. baumannii (ATCC 17978), K. pneumoniae (ATCC 43816), K. pneumoniae (ATCC 43816, expressing pGDP2:mcr-1), P. aeruginosa (PA01). Bacterial growth was in cation-adjusted Mueller-Hinton broth (MHB) at 37° C., and inoculum was prepared according to CLSI protocol (CLSI 2015).
(§2) Potentiation assays. Checkerboard analyses were conducted with each drug serially diluted at eight concentrations to create an 8×8 matrix. At least two biological replicates were done for each combination, and the means were used for FIC calculation. The FIC for each drug was calculated by dividing the concentration of the drug in the presence of codrug in a combination for a well showing <10% growth by the MIC for that drug alone. The FIC index (FICI) is the sum of the two FICs, with an FIC index≤0.5 deemed synergistic.

[2] = test system: K. pneumoniae (ATCC 43816); test: Checkerboard potentiation assay with novobiocin; format: cell-based
Protocol: as §1, §2
(§3) To probe the spectrum of activity of the present analogs beyond A. baumannii, their interactions with novobiocin were assessed against the high-priority Gram-negative pathogens Klebsiella pneumoniae and P. aeruginosa (FIG. 5).

[3] = test system: P. aeruginosa (PA01); test: Checkerboard potentiation assay with novobiocin; format: cell-based
Protocol: as §1, §2, §3

[4] = test system: LPS from E. coli EH100; test: BODIPY-Cadaverine LPS displacement assay; format: binding; conditions: for LPS Displacement (EC50, μg/mL): BODIPY-cadaverine displacement from E. coli EH100 LPS
Protocol: BODIPY-Cadaverine LPS displacement assay. The BODIPY-cadaverine LPS displacement assay was performed as previously described (Wood et al. 2004. Combinatorial Chemistry & High Throughput Screening, 7: 239-49; Klobucar et al. 2021. ACS Chemical Biology, 16: 929-42). A solution of BODIPY-cadaverine (2.25 μM) and LPS from E. coli EH100 (5.25 μM) in Tris-HCl buffer (50 mM, pH 7.4) was prepared. 0.5 μL of compound and 49.5 μL of the Tris-HCl buffer with BODIPY-cadaverine and LPS solution were added to a Corning nonbinding surface black 384-well polystyrene plate. Fluorescence intensity was measured immediately with an excitation wavelength of 580 nm and an emission wavelength of 620 nm. EC50 values were calculated using a three-parameter logistic curve in GraphPad Prism 9.

[5] = HEK293 cytotoxicity assay (Cell Titer Glo); format: cell-based; conditions: human, HEK293T Cytotoxicity (IC50, μg/mL)
Protocol: Cytotoxicity Assays. HEK293 (ATCC CRL 1573) cells were left to adhere for 18 h at 7.5×10^3 cells per well in DMEM containing 10% FBS and 2 mM L-glutamine. Compound was added directly into the well. After 48 h of treatment Promega Cell Titer Glo 2.0® was added, shaken for 10 min, and luminescence read (Biotek Neo). AC50 values were calculated using a four-parameter logistic curve in GraphPad Prism 9.
Focusing on only the analogs that retained synergistic activity with novobiocin (FICI≤0.5), half-maximal activity (AC50) values were calculated against HEK293 cells using a CellTiter-Glo® based assay to approximate cell viability. […] Specifically, the FICI value for both P35 and P36 was 0.094 against A. baumannii, while their AC50 values were 235 μg/mL and 200 μg/mL, respectively.

[6] = test system: A. baumannii ATCC 17978; test: Systemic A. baumannii murine infection model; format: in vivo, mouse
Protocol: Mouse infection models. Animal experiments were conducted according to guidelines set by the Canadian Council on Animal Care using protocols approved by the Animal Review Ethics Board at McMaster University under Animal Use Protocol #20-12-43. Before infection, mice were relocated at random from a housing cage to treatment or control cages. No animals were excluded from analyses, and blinding was considered unnecessary. Seven- to nine-week-old female C57BL/6 mice (Charles River) were infected intraperitoneally with ˜2×10^6 CFU of A. baumannii ATCC 17978, with 5% porcine mucin (Sigma-Aldrich). Infections were allowed to establish for 2 h, and treatments were administered intraperitoneally. For the survival study, the clinical endpoint was determined using a five-point body condition score analyzing weight loss, decrease in body temperature, respiratory distress, hampered mobility and hunched posture. Experimental endpoint was defined as five days post-infection for mice not reaching clinical endpoint. For CFU/mL enumeration, animals were infected as described above and euthanized 6 h post-infection, and blood was collected into sterile 2 ml heparinized tubes (BD Scientific) serially diluted in PBS and plated onto solid LB. Plates were incubated overnight at 37° C., and colonies were quantified to determine bacterial load.
This was directly compared to the activity of P35 and P36 in this model (all administered at 10 mg/kg) in combination with novobiocin (50 mg/kg).
For this experiment the same A. baumannii infection model was used, however, endpoint was defined as 6 h post-infection, at which point blood was collected for CFU/mL enumeration (FIG. 2b).

Row | Compound | FICI AB [1] | FICI KP [2] | FICI PA [3] | LPS Displacement (EC50, μg/mL) [4] [µg/mL] | IC50 at 48 h [5] [µg/mL] | Increase of LPS binding affinity compared to pentamidine ([4]; BODIPY displacement EC50 relative to pentamidine) [fold] | Animals rescued in combination with novobiocin ([6]; 10 mg/kg analog + 50 mg/kg novobiocin i.p. 2 h post-infection, endpoint 5 days) [%] | Impact on blood CFU/mL, treatment alone ([6]; alone, 6 h post-infection, compared to control-treated animals)
1 | N=C(N)c1ccc(OCCC2(CCOc3ccc(C(=N)N)cc3)CCCC2)cc1 [Analog P02] | 0.156 | 0.187 | 0.281 | 77.29 | 15.3 |  |  | 
2 | N=C(N)c1ccc(OCCC2(CCOc3ccc(C(=N)N)cc3)CCCCC2)cc1 [Analog P03] | 0.094 | 0.078 | 0.625 |  |  |  |  | 
3 | N=C(N)c1ccc(OCCC2(CCOc3ccc(C(=N)N)cc3)CCCCCC2)cc1 [Analog P04] | 0.14 | 0.25 | 0.531 | 15.97 | 37.1 |  |  | 
4 | CC(C)(CCOc1ccc(C(=N)N)cc1)CCOc1ccc(C(=N)N)cc1 [Analog P06] | 0.187 | 0.156 | 0.375 | 62.47 | 69.1 |  |  | 
5 | CCC(CC)(CCOc1ccc(C(=N)N)cc1)CCOc1ccc(C(=N)N)cc1 [Analog P07] | 0.0625 | 0.156 | 1 | 19.04 | 31.2 | > 10 |  | 
6 | N=C(N)c1ccc(OC2CCC(Oc3ccc(C(=N)N)cc3)CC2)cc1 (centres unmarked) [Analog P08] | 0.375 | 0.25 | 2 | 288.7 | > 160 |  |  | 
7 | c1c[nH]c(-c2ccc(OCCCCCOc3ccc(-c4ncc[nH]4)cc3)cc2)n1 [Analog P11] |  | 2 | 2 |  | 104 |  |  | 
8 | N=C(N)c1ccc(OCCCCCOc2ccc(C(=N)N)cc2F)c(F)c1 [Analog P12] | 0.187 | 0.187 | 0.5 | 63.21 | 95.5 |  |  | 
9 | C[C@@H](CCC[C@H](C)Oc1ccc(C(=N)N)cc1)Oc1ccc(C(=N)N)cc1 [Analog P15A] |  | 0.25 | 0.5 | 118.2 | 106 |  |  | 
10 | C[C@H](CCC[C@H](C)Oc1ccc(C(=N)N)cc1)Oc1ccc(C(=N)N)cc1 [Analog P15B] |  | 0.187 | 0.187 | 132.5 | 239 |  |  | 
11 | C[C@H](CCC[C@@H](C)Oc1ccc(C(=N)N)cc1)Oc1ccc(C(=N)N)cc1 [Analog P15C] |  | 0.25 | 0.375 | 148.8 |  |  |  | 
12 | CC(CCCC(C)Oc1ccc(C(=N)N)cc1)Oc1ccc(C(=N)N)cc1 (centres unmarked) [Analog P15] |  | 0.25 | 0.281 |  |  |  |  | 
13 | N=C(N)c1ccc(OCCCCCOc2ccc(C(=N)N)nc2)cn1 [Analog P16] | 0.25 | 0.375 | 1 | 60.19 | 183 |  |  | 
14 | N=C(NC1CCCCC1)c1ccc(OCCCCCOc2ccc(C(=N)NC3CCCCC3)nc2)cn1 [Analog P18] |  | 1 | 2 | 218.8 | 22.2 |  |  | 
15 | N/C(=N\O)c1ccc(OCCCCCOc2ccc(/C(N)=N/O)nc2)cn1 [Analog P19] |  | 2 | 2 |  | 135 |  |  | 
16 | N=C(N)c1ccc(OCCCCCOc2ccc(C(=N)N)cn2)nc1 [Analog P20] | 0.25 | 0.25 | 2 |  | > 320 |  |  | 

Row | Compound | FICI AB [1] | FICI KP [2] | FICI PA [3] | LPS Displacement (EC50, μg/mL) [4] [µg/mL] | IC50 at 48 h [5] [µg/mL] | Increase of LPS binding affinity compared to pentamidine ([4]; BODIPY displacement EC50 relative to pentamidine) [fold] | Animals rescued in combination with novobiocin ([6]; 10 mg/kg analog + 50 mg/kg novobiocin i.p. 2 h post-infection, endpoint 5 days) [%] | Impact on blood CFU/mL, treatment alone ([6]; alone, 6 h post-infection, compared to control-treated animals)
17 | N=C(N)c1ccc(OCCC2CCCCC2CCOc2ccc(C(=N)N)cc2)cc1 (centres unmarked) [Analog P21] | 0.094 | 0.046 | 1 | 13.08 | 19.2 |  |  | 
18 | C[C@@H](CCCOc1ccc(C(=N)N)cc1)COc1ccc(C(=N)N)cc1 [Analog P22R] |  | 0.25 | 0.3125 | 26.02 | 94.2 |  |  | 
19 | C[C@H](CCCOc1ccc(C(=N)N)cc1)COc1ccc(C(=N)N)cc1 [Analog P22S] |  | 0.25 | 0.375 | 59.08 | 53.7 |  |  | 
20 | N=C(N)c1ccc(OCCC[C@@H]2CCCN(c3ccc(C(=N)N)cc3)C2)cc1 [Analog P24A] |  | 0.187 | 0.375 | 91.74 | 77.9 |  |  | 
21 | N=C(N)c1ccc(OCCC[C@H]2CCCN(c3ccc(C(=N)N)cc3)C2)cc1 [Analog P24B] |  | 0.187 | 0.75 | 149.5 | 57.9 |  |  | 
22 | N=C(N)c1ccc(OCCC2(CCOc3ccc(C(=N)N)cc3)CCC(C(=O)O)CC2)cc1 (centres unmarked) [Analog P30] | 0.625 | 1 | 2 | 119.4 | 1100 |  |  | 
23 | N=C(N)c1ccc(OCCNCCOc2ccc(C(=N)N)cc2)cc1 [Analog P31A] | 0.5 |  | 2 | 497.8 | > 640 |  |  | 
24 | N=C(N)c1ccc(OCC2(COc3ccc(C(=N)N)cc3)CCCCC2)cc1 [Analog P31] | 0.094 | 0.0937 | 0.187 | 43.82 | 73.5 |  |  | 
25 | N=C(N)c1ccc(OCCN(CCOc2ccc(C(=N)N)cc2)CCC(F)(F)F)cc1 [Analog P34] | 0.25 |  | 0.375 | 134.3 | > 80 |  |  | 
26 | N=C(N)c1ccc(OCCN(CCOc2ccc(C(=N)N)cc2)Cc2ccccc2)cc1 [Analog P36] | 0.094 |  | 0.5 | 165.9 | 200 |  | 80 | 
27 | N=C(N)c1ccc(OCCC(N)CCOc2ccc(C(=N)N)cc2)cc1 (centres unmarked) [Analog P37] | 0.75 |  | 2 |  |  |  |  | 
28 | N=C(N)c1ccc(OCCC(CCOc2ccc(C(=N)N)cc2)N2CCCC2)cc1 (centres unmarked) [Analog P38] | 0.75 |  | 2 | 202 | > 80 |  |  | 
29 | N=C(N)c1ccc(OCCC2(CCOc3ccc(C(=N)N)cn3)CCCC2)nc1 [Analog P39] | 0.094 |  | 0.3125 | 48.34 | 53.7 |  |  | 
30 | CO[C@@H]1[C@@H](OC(N)=O)[C@@H](O)[C@H](Oc2ccc3c(O)c(NC(=O)c4ccc(O)c(CC=C(C)C)c4)c(=O)oc3c2C)OC1(C)C [novobiocin, reference compound] |  |  |  |  |  |  |  | no significant impact
31 | colistin [reference compound] |  |  |  | 7.81 |  |  |  | 
